Earlier results, collected in US20040097599A1, “Antibacterial and antifungal compositions based on branched C-11 alcohols” (priority 2001, published 2004).
Values after ≈ are worked out from the molar mass of the structure shown.

Tested on: Streptococcus mutans
Details: towards Streptococcus mutans; J. Agric. Food Chem. 1993, 41, 2447-2450

Compound | MIC (Minimum Inhibitory Concentration) [µg/mL]
CCCCCCCCCCCCO [1-dodecanol] | 6.25 (≈ 33.5 µM)
CCCCCCCCCCCCCO [1-tridecanol] | 6.25 (≈ 31.2 µM)
